The target of test [1] is T1, 5-hydroxytryptamine receptor 1A (Homo sapiens, UniProt P08908).
T1 sequence (P08908 whole entry): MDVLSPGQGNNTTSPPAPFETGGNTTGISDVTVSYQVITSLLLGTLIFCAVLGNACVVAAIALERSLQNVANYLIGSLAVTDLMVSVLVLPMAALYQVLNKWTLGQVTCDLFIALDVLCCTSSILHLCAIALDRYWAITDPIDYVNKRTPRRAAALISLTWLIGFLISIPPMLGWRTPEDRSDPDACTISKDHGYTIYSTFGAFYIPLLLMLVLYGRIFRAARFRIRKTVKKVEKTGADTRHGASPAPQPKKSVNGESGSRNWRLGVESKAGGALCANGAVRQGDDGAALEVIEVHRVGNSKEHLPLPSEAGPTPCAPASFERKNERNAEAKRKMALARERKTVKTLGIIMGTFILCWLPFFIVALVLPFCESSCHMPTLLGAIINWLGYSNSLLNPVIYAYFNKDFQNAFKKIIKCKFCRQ

Test [2] deals with 5-hydroxytryptamine receptor 2A (Rattus norvegicus, UniProt P14842).
5-hydroxytryptamine receptor 2A, sequence (P14842 whole entry): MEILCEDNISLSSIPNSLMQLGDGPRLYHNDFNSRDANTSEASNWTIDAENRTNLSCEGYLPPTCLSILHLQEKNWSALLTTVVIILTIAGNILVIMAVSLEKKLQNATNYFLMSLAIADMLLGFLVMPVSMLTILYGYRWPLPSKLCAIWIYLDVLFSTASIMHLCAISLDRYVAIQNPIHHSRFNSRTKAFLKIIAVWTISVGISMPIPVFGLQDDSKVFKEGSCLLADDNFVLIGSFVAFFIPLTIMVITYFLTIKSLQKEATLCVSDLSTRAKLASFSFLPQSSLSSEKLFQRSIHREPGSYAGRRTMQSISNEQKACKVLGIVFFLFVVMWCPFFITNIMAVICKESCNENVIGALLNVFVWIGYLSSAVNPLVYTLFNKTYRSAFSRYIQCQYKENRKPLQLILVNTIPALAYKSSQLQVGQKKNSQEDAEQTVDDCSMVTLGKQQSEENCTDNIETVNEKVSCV
For test [3], the target named is T2, 5-hydroxytryptamine receptor 3A (Mus musculus, UniProt P23979).
T2 sequence (P23979 whole entry): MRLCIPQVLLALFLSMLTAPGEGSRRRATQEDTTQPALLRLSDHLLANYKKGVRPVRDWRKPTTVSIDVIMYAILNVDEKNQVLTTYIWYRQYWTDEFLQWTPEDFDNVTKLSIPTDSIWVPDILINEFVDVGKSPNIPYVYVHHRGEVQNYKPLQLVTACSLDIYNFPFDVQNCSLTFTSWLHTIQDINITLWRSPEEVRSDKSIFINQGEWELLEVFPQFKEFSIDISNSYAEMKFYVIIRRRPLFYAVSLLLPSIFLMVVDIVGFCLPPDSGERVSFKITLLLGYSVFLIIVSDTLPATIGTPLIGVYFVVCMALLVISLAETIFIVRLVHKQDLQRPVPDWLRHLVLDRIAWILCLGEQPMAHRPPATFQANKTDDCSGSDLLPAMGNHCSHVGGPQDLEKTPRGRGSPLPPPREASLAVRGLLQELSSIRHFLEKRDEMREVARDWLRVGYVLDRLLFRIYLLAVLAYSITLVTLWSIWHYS

A further test concerns the target D(1A) dopamine receptor (Homo sapiens, UniProt P21728).
Test [4] deals with T3, 5-hydroxytryptamine receptor 2C (Rattus norvegicus, UniProt P08909).
T3 sequence (P08909 whole entry): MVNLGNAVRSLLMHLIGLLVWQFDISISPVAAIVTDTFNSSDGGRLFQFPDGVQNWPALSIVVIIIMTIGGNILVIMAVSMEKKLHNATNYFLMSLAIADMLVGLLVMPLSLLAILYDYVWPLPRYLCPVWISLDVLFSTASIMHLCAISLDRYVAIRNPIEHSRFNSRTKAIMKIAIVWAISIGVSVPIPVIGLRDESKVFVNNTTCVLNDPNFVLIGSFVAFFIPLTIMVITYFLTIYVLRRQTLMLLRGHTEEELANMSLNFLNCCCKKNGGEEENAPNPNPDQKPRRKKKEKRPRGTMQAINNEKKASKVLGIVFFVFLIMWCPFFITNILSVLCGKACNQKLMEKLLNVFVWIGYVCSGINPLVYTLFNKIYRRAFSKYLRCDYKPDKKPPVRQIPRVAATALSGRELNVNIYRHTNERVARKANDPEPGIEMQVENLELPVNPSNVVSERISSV

In test [5] the target is Kappa-type opioid receptor (Cavia porcellus, UniProt P41144).
Kappa-type opioid receptor, sequence (P41144 whole entry): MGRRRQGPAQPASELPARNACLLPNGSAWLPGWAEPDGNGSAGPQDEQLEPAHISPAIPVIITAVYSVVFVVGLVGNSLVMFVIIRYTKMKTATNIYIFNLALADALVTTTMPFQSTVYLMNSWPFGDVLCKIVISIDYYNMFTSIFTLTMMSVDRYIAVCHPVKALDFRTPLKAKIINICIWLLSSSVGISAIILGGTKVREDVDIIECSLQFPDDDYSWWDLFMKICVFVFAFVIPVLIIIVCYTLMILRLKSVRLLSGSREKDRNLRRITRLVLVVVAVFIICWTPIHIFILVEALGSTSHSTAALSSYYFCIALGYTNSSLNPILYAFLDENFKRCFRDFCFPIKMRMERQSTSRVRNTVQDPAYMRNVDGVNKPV
In the next test the target is Mu-type opioid receptor (Cavia porcellus, UniProt P97266).
Mu-type opioid receptor, sequence (P97266 whole entry): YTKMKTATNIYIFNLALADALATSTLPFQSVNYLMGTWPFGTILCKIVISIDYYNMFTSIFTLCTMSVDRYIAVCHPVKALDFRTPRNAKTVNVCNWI

pKi: −log10 of the molar value. Structures can show the parent of a compound that is named as a salt.

For 26 molecules, Ki results are on record in BindingDB's records for PubMed 9686407 (Sri International, 1998).

The pKi is the negative decadic logarithm of the Ki, by convention in mol/L. Low readings indicate a high Ki, high ones a low Ki.

D(1A) dopamine receptor, sequence (P21728 whole entry): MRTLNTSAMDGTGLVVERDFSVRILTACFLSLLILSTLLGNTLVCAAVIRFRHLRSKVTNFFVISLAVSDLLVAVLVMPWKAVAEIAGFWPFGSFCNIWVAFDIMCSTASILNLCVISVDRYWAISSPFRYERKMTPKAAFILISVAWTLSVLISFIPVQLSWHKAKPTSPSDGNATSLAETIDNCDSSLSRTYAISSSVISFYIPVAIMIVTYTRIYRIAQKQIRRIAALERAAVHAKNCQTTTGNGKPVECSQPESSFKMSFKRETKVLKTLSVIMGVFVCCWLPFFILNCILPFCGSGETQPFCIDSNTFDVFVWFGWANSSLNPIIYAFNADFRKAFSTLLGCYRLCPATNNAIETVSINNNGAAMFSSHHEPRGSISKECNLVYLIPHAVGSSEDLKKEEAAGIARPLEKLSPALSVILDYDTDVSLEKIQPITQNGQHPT

Consider `COC(=O)[C@@H](c1ccccc1)[C@@H]1CCCCN1`, for which the pKi (in test [1]; in test [2]; in test [3]; at D(1A) dopamine receptor; in test [4]) was below 5.00 in each case.
`CN1CCN(c2nc3cc(C(F)(F)F)ccc3n3cccc23)CC1` [CAS_109028-10-6]: the pKi in test [1] was 7.36; in test [2] it was 5.50; in test [3] it was below 5.00; at D(1A) dopamine receptor, 5.82; in test [4] it was 5.18.
The like results for `CN1C2CCC1CC(OC(=O)c1c[nH]c3ccccc13)C2` (centres undefined) were, in that order, below 5.00, 5.25, 9.30, below 5.00 and below 5.00.
`CC(C)[C@H](NC(=O)[C@H](CCC(=O)O)NC(=O)[C@H](Cc1ccccc1)NC(=O)[C@@H](C)NC(=O)[C@@H](N)Cc1ccc(O)cc1)C(=O)N[C@H](C(=O)NCC(N)=O)C(C)C` [Tyr-D-Ala-Phe-Glu-Val-Val-GlyNH2] had a pKi in test [5] below 5.00.
`CN1CC[C@]23c4c5ccc(O)c4O[C@H]2[C@@H](O)CCC3[C@H]1C5` (some centres undefined) [DIHYDROMORPHINE]: at Mu-type opioid receptor, the pKi is 9.10.
As to `CC[C@@H]1CC2C[C@@H]3c4[nH]c5ccc(OC)cc5c4CCN(C2)C13` [IBOGAINE], the pKi (in test [1]; in test [2]; in test [3]; at D(1A) dopamine receptor; in test [4]) was below 5.00 each time.
Regarding `CCCN1CCCC(c2cccc(O)c2)C1` (centres undefined) [CAS_85976-54-1], the pKi was 5.38 in test [1]; 5.22 in test [2]; below 5.00 in test [3]; below 5.00 at D(1A) dopamine receptor; below 5.00 in test [4].
Turning to `CN1C2CCC1CC(OC(=O)c1cc(Cl)cc(Cl)c1)C2` (centres undefined) [MDL 72222], the pKi in test [1] is below 5.00; in test [2] it was 5.54; in test [3] it was 7.85; on D(1A) dopamine receptor, below 5.00; in test [4], below 5.00.
As for `Fc1ccc(C(OCCN2CCN(CCCc3ccccc3)CC2)c2ccc(F)cc2)cc1` [Vanoxerine], the pKi was 5.33 in test [1]; 6.79 in test [2]; below 5.00 in test [3]; below 5.00 on D(1A) dopamine receptor; below 5.00 in test [4].
For `CN[C@@H](C)Cc1ccc2c(c1)OCO2` [MDMA, R(-)], the pKi in test [1] was below 5.00; in test [2], 5.41; in test [3] it was below 5.00; on D(1A) dopamine receptor, below 5.00.
Turning to `COC(=O)[C@H]1[C@@H](OC(=O)c2ccccc2)C[C@@H]2CC[C@H]1N2C` [Cocaine (-)], the pKi (in test [1]; in test [2]; in test [3]; on D(1A) dopamine receptor; in test [4]) was below 5.00 each time.
Consider `CCN(CC)CCNC(=O)c1cc(Cl)c(N)cc1OC` [4-amino-5-chloro-N-[2-(diethylamino)ethyl]-2-methoxy-benzamide;hydrochloride], for which the pKi in test [1] was below 5.00; in test [3] it was 6.45; at D(1A) dopamine receptor, below 5.00; in test [4], 5.41.
`CN[C@@H](C)Cc1ccccc1` [METHAMPHETAMINE (+)]: the pKi (in test [1]; in test [2]; in test [3]; on D(1A) dopamine receptor; in test [4]) was below 5.00 each time.
For the molecule `CN(C)CCCN1c2ccccc2CCc2ccccc21`, the pKi in test [1] was below 5.00; in test [3], 5.44; on D(1A) dopamine receptor, below 5.00; in test [4] it was 6.97.
Turning to `Oc1ccc2c3c1O[C@H]1c4[nH]c5c(c4C[C@@]4(O)[C@@H](C2)N(CC2CC2)CC[C@]314)C[C@@]1(O)[C@H]2Cc3ccc(O)c4c3[C@@]1(CCN2CC1CC1)[C@H]5O4` [C18130], the pKi at Mu-type opioid receptor is 8.08.
Same read-out and setting: the result for `CCC12CCN(CC3(O)CC3)C(Cc3ccc(O)cc31)C2(C)C` (centres undefined) reads 10.00.
As for `CCc1cc(Cl)c(OC)c(C(=O)NC[C@@H]2CCCN2CC)c1O` [3-Chloro-5-ethyl-N-((S)-1-ethyl-pyrrolidin-2-ylmethyl)-6-hydroxy-2-methoxy-benzamide], the pKi was 5.75 in test [1]; 6.15 in test [2]; below 5.00 in test [3]; below 5.00 at D(1A) dopamine receptor; below 5.00 in test [4].
In the case of `CC[C@H](C)[C@H](NC(=O)[C@H](CCCNC(=N)N)NC(=O)[C@H](CCCNC(=N)N)NC(=O)[C@H](CC(C)C)NC(=O)[C@H](Cc1ccccc1)NC(=O)CNC(=O)CNC(=O)[C@@H](N)Cc1ccc(O)cc1)C(=O)N[C@@H](CCCNC(=N)N)C(=O)N1CCC[C@H]1C(=O)N[C@@H](CCCCN)C(=O)N[C@@H](CC(C)C)C(=O)N[C@@H](CCCCN)C(=O)O` [Dynorphin A (1-13)], on Mu-type opioid receptor, the pKi was 8.48.
Consider `NC(=O)N1c2ccccc2C=Cc2ccccc21` [5H-dibenzo[b,f]azepine-5-carboxamide], for which the pKi (in test [1]; in test [2]; in test [3]; on D(1A) dopamine receptor; in test [4]) was below 5.00 each time.
With `C#CCN(C)[C@H](C)Cc1ccccc1` [US8633208, Deprenyl], the pKi in test [1] was below 5.00; in test [2], 5.25; in test [3], below 5.00; at D(1A) dopamine receptor, below 5.00; in test [4], below 5.00.
The molecule `CC[C@@]12CCN(CC3CC3)C(C(=O)c3ccc(O)cc31)[C@@H]2C` [EKC] had a pKi on Mu-type opioid receptor of 9.40.
Turning to `COC(=O)[C@H]1[C@H]2C[C@@H]3c4[nH]c5cc(OC)ccc5c4CCN3C[C@H]2C[C@@H](OC(=O)c2cc(OC)c(OC)c(OC)c2)[C@@H]1OC` [Apoplon], the pKi is 5.74 in test [1]; 5.51 in test [2]; below 5.00 in test [3]; 5.41 at D(1A) dopamine receptor; 5.51 in test [4].
As for `CC(C)C[C@H]1C(=O)N2CCC[C@H]2[C@]2(O)O[C@](NC(=O)[C@@H]3C=C4c5cccc6[nH]c(Br)c(c56)C[C@H]4N(C)C3)(C(C)C)C(=O)N12` [Bromocriptine+ (GTP+)], the pKi is 7.60 in test [1]; 6.93 in test [2]; below 5.00 in test [3]; 5.68 on D(1A) dopamine receptor; 5.33 in test [4].
In the same order, the values of `CN1CC(C(=O)N[C@]2(C)O[C@@]3(O)C4CCCN4C(=O)[C@H](Cc4ccccc4)N3C2=O)CC2c3cccc4[nH]cc(c34)CC21` (stereo partly drawn) [7-Methyl-4,6,6a,7,8,9,10,10a-octahydro-indolo[4,3-fg]quinoline-9-carboxylic acid ((2R,5S,10bS)-5-benzyl-10b-hydroxy-2-methyl-3,6-dioxo-octahydro-oxazolo[3,2-a]pyrrolo[2,1-c]pyrazin-2-yl)-amide] are 8.82, 7.42, below 5.00, 5.56 and 6.53.
As to `c1ccc2c(c1)OCC(C1=NCCN1)O2` (centres undefined), the pKi in test [1] is 6.18; in test [2] it was below 5.00; in test [3], below 5.00; on D(1A) dopamine receptor it was below 5.00; in test [4], below 5.00.
In the case of `CC(C)C[C@H](NC(=O)[C@H](Cc1ccccc1)NC(=O)CNC(=O)CNC(=O)[C@@H](N)Cc1ccc(O)cc1)C(=O)N[C@@H](CCCN=C(N)N)C(=O)N[C@@H](CCCN=C(N)N)C(=O)N[C@@H](CCC(N)=O)C(=O)N[C@@H](Cc1ccccc1)C(=O)N[C@@H](CCCCN)C(=O)N[C@H](C(=O)N[C@H](C(=O)N[C@H](C(=O)O)[C@@H](C)O)C(C)C)C(C)C` [Dynorphin B (1-13)], on Mu-type opioid receptor, the pKi is 8.26.
